Assay results as given in the NIST ThermoML archive (doi:10.1021/acs.jced.7b00106).
Where “and” joins values, the source holds several entries; their conditions need not be identical. Equal entries are not always repeated. Numbers after ± are expanded uncertainties.

Conditions: Hot wire method

FC(F)(F)/C=C/Cl [(E)-1-chloro-3,3,3-trifluoroprop-1-ene]
Conditions	thermal conductivity
382.51 K, 10968 kPa, Liquid	0.06711 ± 0.0013 W/m/K
382.51 K, 10976 kPa, Liquid	0.0674 ± 0.0025 W/m/K
382.53 K, 24122 kPa, Liquid	0.07474 ± 0.0025 W/m/K
382.54 K, 24143 kPa, Liquid	0.07473 ± 0.0071 W/m/K
382.55 K, 1308 kPa, Liquid	0.0594 ± 0.0013 W/m/K
382.56 K, 884 kPa, Fluid (supercritical or subcritical phases)	0.01781 ± 0.0024 W/m/K and 0.01779 ± 0.0024 W/m/K
382.56 K, 1302 kPa, Liquid	0.05937 ± 0.0012 W/m/K
382.56 K, 7890 kPa, Liquid	0.06497 ± 0.002 W/m/K
382.56 K, 7897 kPa, Liquid	0.06497 ± 0.001 W/m/K
382.56 K, 8382 kPa, Liquid	0.06533 ± 0.0054 W/m/K
382.56 K, 8389 kPa, Liquid	0.06536 ± 0.0047 W/m/K
382.58 K, 20086 kPa, Liquid	0.07258 ± 0.0011 W/m/K
382.58 K, 20109 kPa, Liquid	0.07262 ± 0.0016 W/m/K
382.6 K, 1196 kPa, Fluid (supercritical or subcritical phases)	0.01858 ± 0.0032 W/m/K
382.61 K, 1196 kPa, Fluid (supercritical or subcritical phases)	0.01858 ± 0.0032 W/m/K
382.62 K, 35572 kPa, Liquid	0.07991 ± 0.0018 W/m/K
382.63 K, 6276 kPa, Liquid	0.06372 ± 0.00084 W/m/K
382.63 K, 35594 kPa, Liquid	0.08017 ± 0.0029 W/m/K
382.64 K, 727 kPa, Fluid (supercritical or subcritical phases)	0.01771 ± 0.0015 W/m/K
382.64 K, 6276 kPa, Liquid	0.06375 ± 0.00084 W/m/K
382.65 K, 16810 kPa, Liquid	0.07072 ± 0.00099 W/m/K
382.65 K, 33011 kPa, Liquid	0.079 ± 0.0025 W/m/K
382.66 K, 16821 kPa, Liquid	0.07073 ± 0.0042 W/m/K
382.66 K, 33037 kPa, Liquid	0.07905 ± 0.0011 W/m/K
382.7 K, 13733 kPa, Liquid	0.0689 ± 0.0008 W/m/K
382.71 K, 13730 kPa, Liquid	0.06888 ± 0.00081 W/m/K
382.71 K, 28321 kPa, Liquid	0.07678 ± 0.0027 W/m/K
382.71 K, 28350 kPa, Liquid	0.07685 ± 0.00091 W/m/K
382.72 K, 4298 kPa, Liquid	0.06213 ± 0.0013 W/m/K
382.74 K, 4301 kPa, Liquid	0.06214 ± 0.0013 W/m/K
382.77 K, 2602 kPa, Liquid	0.06057 ± 0.0007 W/m/K
382.77 K, 2621 kPa, Liquid	0.06066 ± 0.0014 W/m/K
382.77 K, 10954 kPa, Liquid	0.06703 ± 0.0015 W/m/K
382.77 K, 24142 kPa, Liquid	0.07452 ± 0.0011 W/m/K
382.78 K, 1001 kPa, Fluid (supercritical or subcritical phases)	0.01826 ± 0.0046 W/m/K
382.78 K, 24124 kPa, Liquid	0.07466 ± 0.0014 W/m/K
382.79 K, 1000 kPa, Fluid (supercritical or subcritical phases)	0.0181 ± 0.0042 W/m/K
382.79 K, 10954 kPa, Liquid	0.06707 ± 0.0015 W/m/K
382.81 K, 530 kPa, Fluid (supercritical or subcritical phases)	0.01767 ± 0.00088 W/m/K
382.82 K, 7886 kPa, Liquid	0.06511 ± 0.0016 W/m/K
382.83 K, 1306 kPa, Liquid	0.05933 ± 0.00067 W/m/K
382.83 K, 8368 kPa, Liquid	0.06524 ± 0.0012 W/m/K
382.83 K, 8383 kPa, Liquid	0.06552 ± 0.0011 W/m/K
382.84 K, 1310 kPa, Liquid	0.05941 ± 0.0008 W/m/K
382.84 K, 7894 kPa, Liquid	0.06495 ± 0.00099 W/m/K
382.84 K, 20089 kPa, Liquid	0.07256 ± 0.0016 W/m/K
382.85 K, 20100 kPa, Liquid	0.07257 ± 0.0019 W/m/K
382.87 K, 883 kPa, Fluid (supercritical or subcritical phases)	0.01794 ± 0.0024 W/m/K
382.87 K, 885 kPa, Fluid (supercritical or subcritical phases)	0.01792 ± 0.0028 W/m/K
382.87 K, 35575 kPa, Liquid	0.08013 ± 0.0029 W/m/K
382.87 K, 35578 kPa, Liquid	0.08012 ± 0.0029 W/m/K
382.91 K, 1197 kPa, Fluid (supercritical or subcritical phases)	0.01873 ± 0.0041 W/m/K
382.91 K, 6263 kPa, Liquid	0.06365 ± 0.0026 W/m/K
382.91 K, 6280 kPa, Liquid	0.06372 ± 0.0026 W/m/K
382.91 K, 33006 kPa, Liquid	0.07896 ± 0.0014 W/m/K
382.91 K, 33028 kPa, Liquid	0.07899 ± 0.0013 W/m/K
382.92 K, 16811 kPa, Liquid	0.07071 ± 0.0012 W/m/K
382.92 K, 16817 kPa, Liquid	0.0707 ± 0.0012 W/m/K
382.96 K, 28308 kPa, Liquid	0.07685 ± 0.0012 W/m/K
382.97 K, 727 kPa, Fluid (supercritical or subcritical phases)	0.01778 ± 0.0018 W/m/K
382.97 K, 28333 kPa, Liquid	0.07679 ± 0.0011 W/m/K
382.98 K, 13709 kPa, Liquid	0.06879 ± 0.0013 W/m/K
382.98 K, 13730 kPa, Liquid	0.06887 ± 0.0013 W/m/K
383 K, 4290 kPa, Liquid	0.06207 ± 0.00079 W/m/K
383.01 K, 4292 kPa, Liquid	0.0621 ± 0.00084 W/m/K
383.03 K, 24102 kPa, Liquid	0.07464 ± 0.00093 W/m/K
383.04 K, 24119 kPa, Liquid	0.07466 ± 0.00093 W/m/K
383.05 K, 10954 kPa, Liquid	0.06701 ± 0.00095 W/m/K
383.06 K, 2617 kPa, Liquid	0.06075 ± 0.00083 W/m/K
383.06 K, 10970 kPa, Liquid	0.06706 ± 0.00095 W/m/K
383.07 K, 2612 kPa, Liquid	0.06066 ± 0.0012 W/m/K
383.08 K, 1001 kPa, Fluid (supercritical or subcritical phases)	0.01823 ± 0.0013 W/m/K
383.08 K, 1002 kPa, Fluid (supercritical or subcritical phases)	0.01821 ± 0.0014 W/m/K
